Experimental data from patent publication US10519183B2, “Amine solvate of sodium-glucose linked transporter inhibitor, and preparation method and application thereof” (Youngene Therapeutics Co., Ltd., priority 2016, dated 2019).

What was measured:
[1] = stress study on physical stability and chemical stability (80° C., one week); type: physicochemical; conditions: for Chemical purity: HPLC
Method: The stress study on the physical stability and chemical stability of the diethylamine solvate of the compound of formula (I) and the amorphous compound of formula (I) were carried out. The diethylamine solvate of the compound of formula (I) obtained in Example 3 and the amorphous compound of formula (I) were placed in glass vials respectively in duplicate, about 10 mg each sample. These samples for stability test were placed in an incubator at 80° C. for one week. After being placed for one week, one sample was used for the chemical purity analysis by HPLC method. The other sample was used for the crystal characterization by XRPD.

SGLT1 = target: T1, SGLT1 (Homo sapiens, UniProt P13866); conditions: cited from earlier work
T1 sequence (P13866 1-664): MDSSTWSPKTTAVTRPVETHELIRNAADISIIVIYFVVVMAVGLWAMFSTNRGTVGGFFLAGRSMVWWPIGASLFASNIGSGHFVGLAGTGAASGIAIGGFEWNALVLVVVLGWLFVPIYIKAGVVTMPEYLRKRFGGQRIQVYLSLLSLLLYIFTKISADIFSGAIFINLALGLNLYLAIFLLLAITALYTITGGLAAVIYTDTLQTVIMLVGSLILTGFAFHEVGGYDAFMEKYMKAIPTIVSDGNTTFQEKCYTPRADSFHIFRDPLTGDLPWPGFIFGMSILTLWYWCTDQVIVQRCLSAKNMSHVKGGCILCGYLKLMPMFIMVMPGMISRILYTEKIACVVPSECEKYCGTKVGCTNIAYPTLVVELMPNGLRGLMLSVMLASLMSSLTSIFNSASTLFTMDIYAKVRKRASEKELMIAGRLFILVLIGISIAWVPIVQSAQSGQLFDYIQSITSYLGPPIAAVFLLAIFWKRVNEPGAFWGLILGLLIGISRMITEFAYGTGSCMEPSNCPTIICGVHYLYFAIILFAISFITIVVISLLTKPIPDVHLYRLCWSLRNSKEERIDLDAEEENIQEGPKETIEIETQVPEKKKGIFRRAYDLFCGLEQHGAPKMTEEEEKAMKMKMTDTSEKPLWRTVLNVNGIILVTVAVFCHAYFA

SGLT2 = target: T2, SGLT2 (Homo sapiens, UniProt P31639); conditions: cited from earlier work
T2 sequence (P31639 1-672): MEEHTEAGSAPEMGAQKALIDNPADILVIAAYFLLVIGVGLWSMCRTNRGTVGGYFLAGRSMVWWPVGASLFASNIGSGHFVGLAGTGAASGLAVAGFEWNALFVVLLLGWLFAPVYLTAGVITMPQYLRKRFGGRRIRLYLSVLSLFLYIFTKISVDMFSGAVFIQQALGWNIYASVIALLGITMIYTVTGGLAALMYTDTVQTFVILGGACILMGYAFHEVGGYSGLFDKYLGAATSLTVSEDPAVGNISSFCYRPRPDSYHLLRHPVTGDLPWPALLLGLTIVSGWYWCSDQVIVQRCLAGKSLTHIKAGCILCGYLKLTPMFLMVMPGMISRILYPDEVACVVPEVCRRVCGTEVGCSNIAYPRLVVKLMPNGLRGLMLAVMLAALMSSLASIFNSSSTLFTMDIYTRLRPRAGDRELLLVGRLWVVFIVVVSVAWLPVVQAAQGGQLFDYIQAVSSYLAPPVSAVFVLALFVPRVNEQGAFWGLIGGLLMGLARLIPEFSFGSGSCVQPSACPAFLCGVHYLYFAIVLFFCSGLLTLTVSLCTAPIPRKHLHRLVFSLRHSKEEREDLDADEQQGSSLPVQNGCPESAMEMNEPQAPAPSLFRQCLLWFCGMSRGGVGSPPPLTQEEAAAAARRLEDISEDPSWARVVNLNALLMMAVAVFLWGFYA

## CCc1ccc([C@]23OC[C@](CO)(O2)[C@@H](O)[C@H](O)[C@H]3O)cc1Cc1ccc2c(c1)OCCO2 [compound of formula (I), (1S,2S,3S,4R,5S)-5-(3-((2,3-dihydrobenzo[b][1,4]dioxin-6-yl)methyl)-4-ethylphenyl)-1-(hydroxymethyl)-6,8-dioxabicyclo[3.2.1]octane-2,3,4-triol]
[1]; 80° C., stress stability test
  degradation at high temperature: changed and degraded immediately
[1]; After being placed for one week at 80° C.
  Chemical purity: 90.2%
[1]; Initial state of the samples
  Chemical purity: 95.1%
SGLT1
  inhibitory effect on SGLT1: significant inhibitory effect
SGLT2
  inhibitory effect on SGLT2: very significant inhibitory effect
